Laboratory results reported in patent publication US11827628B2, “Compositions and methods for inhibition of the JAK pathway” (Rigel Pharmaceuticals, Inc., priority 2005, dated 2023).
Where a name gives a salt, the structure may show the parent alone. Read-outs that look alike come from different tables or passages of the source.

Columns and labels:
[1] = tested on: IL-4 stimulated expression of CD23 in human Ramos B cells (JAK-1 and JAK-3); assay: Assay for Ramos B-Cell Line Stimulated with IL-4 (CD23 upregulation, FACS); assay type: cell-based; settings: read-out: IC50, Example 41
Procedure, shortened: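 Read-out is surface CD23 by FACS after anti-CD23-PE staining, giving IC50. Before this, cells were stimulated 20-24 h with 50 units/mL (final) human IL-4, following 1 h compound or vehicle pre-treatment at 37 °C; log-phase Ramos B cells, 5×10^4 per well in 5% serum RPMI.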

[2] = tested on: up-regulation of ICAM-1 (CD54) by IFNγ in U937 human monocytic cells; assay: U937 IFNγ ICAM1 FACS Assay; assay type: cell-based; settings: U937 cells stimulated with IFNγ, ICAM-1 expression by FACS, read-out: IC50, Example 44
Procedure, shortened: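 U937 cells in 10% FCS RPMI were preincubated 30 min at 37 °C with an 8-point, 3-fold compound dilution series in duplicate, then stimulated with IFNγ for 18–24 h. Surface ICAM-1 was stained with APC anti-ICAM-1 and read by flow cytometry as geometric mean on live-gated cells. EC50 was derived.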

[3] = Ramos B cells stimulated with IL-4, CD23 expression by FACS
[4] = Ramos B-cell line stimulated with IL-4, CD23 expression by FACS

## CCS(=O)(=O)N1CCc2cc(Nc3nc(Nc4ccc(C)c(S(N)(=O)=O)c4)ncc3F)ccc2C1 [VII-15, N2-(3-aminosulfonyl-4-methyl)phenyl-N4-[(N-ethylsulfonyl)-1,2,3,4-tetrahydroisoquinolin-6-yl]-5-fluoro-2,4-pyrimidinediamine]
[1]; [3]
  IC50: 0.0666 µM
[2]
  IC50: 0.568 µM

## N4-(3-Chloro-4-cyanomethyleneoxyphenyl)-5-fluoro-N2-(5-methyl-2H-1,1-dioxide-1,2,4-benzothiadiazin-7-yl)-2,4-pyrimidinediamine [VIII-2]
[1]; [3]
  IC50: 0.178 µM
[2]
  IC50: 8.55 µM

## NS(=O)(=O)c1ccc(Nc2ncc(F)c(Nc3ccc(OCc4ccccn4)cc3)n2)cc1 [Compound I-163, N2-(4-Aminosulfonylphenyl)-5-fluoro-N4-[4-(2-pyridinyl)methyleneoxyphenyl]-2,4-pyrimidinediamine]
[1]; [4]
  IC50: 0.177 µM
[2]
  IC50: 1.41 µM

## Cc1cc(Nc2nc(Nc3cccc(S(N)(=O)=O)c3)ncc2F)ccc1OC(C)C(N)=O (racemic) [Compound I-120, Racemic N4-[4-(1-Aminocarbonyl)ethoxy-3-methyl]phenyl-N2-(3-aminosulfonyl)phenyl-5-fluoro-2,4-pyrimidinediamine]
[1]; [4]
  IC50: 0.201 µM
[2]
  IC50: 4.46 µM

## COCCOc1ccc(Nc2nc(Nc3ccc(C)c(S(N)(=O)=O)c3)ncc2F)cc1 [VI-112, N2-(3-Aminosulfonyl-4-methylphenyl)-5-fluoro-N4-[4-(2-methoxyethyleneoxy)phenyl]-2,4-pyrimdinediamine]
[1]; [3]
  IC50: 0.152 µM
[2]
  IC50: 1.26 µM

## Cc1ccc(Nc2ncc(F)c(Nc3ccc4[nH]cc(CC#N)c4c3)n2)cc1S(=O)(=O)NC1CCN(C)CC1 [IX-19, N4-(3-cyanomethylene-1H-indol-5yl)-5-fluoro-N2-[3-(1-methyl-4-aminopiperadine)sulfonyl-4-methylphenyl]-2,4-pyrimidinediamine]
[1]; [3]
  IC50: 0.118 µM
[2]
  IC50: 3.37 µM

## CC(C)c1ccc(Nc2ncc(F)c(Nc3ccc(OCC#N)cc3)n2)cc1S(N)(=O)=O [Compound I-8, N2-(3-Aminosulfonyl-4-iso-propylphenyl)-N4-(4-cyanomethyleneoxyphenyl)-5-fluoro-2,4-pyrimidinediamine]
[1]; [4]
  IC50: 0.0587 µM
[2]
  IC50: 0.41 µM

## NC1CCOc2ccc(Nc3nc(Nc4ccc(S(N)(=O)=O)cc4)ncc3F)cc21 (stereo not shown) [VII-29, N2-(4-Aminosulfonylphenyl)-N4-(chroman-4-amine-6-yl)-5-fluoro-2,4-pyrimidinediamine]
[1]; [3]
  IC50: 0.0476 µM
[2]
  IC50: 38.5 µM

## CNS(=O)(=O)c1cc(Nc2ncc(F)c(Nc3ccc(-c4ccccn4)c(OCF)c3)n2)ccc1C [Compound I-173, 5-Fluoro-N2-[3-N-(methyl)aminosulfonyl-4-methylphenyl]-N4-[4-(2-pyridinyl)-3-fluoromethyleneoxyphenyl]-2,4-pyrimidinediamine]
[1]; [4]
  IC50: 0.115 µM
[2]
  IC50: 15.5 µM

## N#CCn1ccc2cc(Nc3nc(Nc4ccc(Cl)c(S(N)(=O)=O)c4)ncc3F)ccc21 [IX-7, N2-(3-Aminosulfonyl-4-chlorophenyl)-N4-(1-cyanomethyleneindol-5-yl)-5-fluoro-2,4-pyrimidinediamine]
[1]; [3]
  IC50: 0.109 µM
[2]
  IC50: 4.73 µM

## CN1CCN(c2ccc(Nc3ncc(F)c(Nc4ccc(OCC#N)c(F)c4)n3)cc2S(N)(=O)=O)CC1 [Compound I-10, N2-[3-Aminosulfonyl-4-(4-methylpiperazine-1-yl)phenyl]-5-fluoro-N4-(4-cyanomethyleneoxy-3-fluorophenyl)-2,4-pyrimidinediamine]
[1]; [4]
  IC50: 0.0255 µM
[2]
  IC50: 0.261 µM

## NS(=O)(=O)c1cccc(Nc2ncc(F)c(Nc3ccc(OCC(F)(F)F)cc3)n2)c1 [VI-47, N2-(3-Aminosulfonylphenyl)-5-fluoro-N4-(4-trifluoromethylmethyleneoxyphenyl)-2,4-pyrimidinediamine]
[1]; [3]
  IC50: 0.0828 µM
[2]
  IC50: 0.596 µM

## COCCn1ncc2cc(Nc3nc(Nc4cccc(S(N)(=O)=O)c4)ncc3F)ccc21 [VII-23, N2-(3-Aminosulfonylphenyl)-5-fluoro-N4-[1-(2-methoxyethyl)indazolin-5-yl]-2,4-pyrimidinediamine]
[1]; [3]
  IC50: 0.129 µM
[2]
  IC50: 0.596 µM

## CNS(=O)(=O)c1cc(Nc2ncc(F)c(Nc3cccc(OCc4cccnc4)c3)n2)ccc1C [Compound I-184, 5-Fluoro-N2-[3-(N-methylaminosulfony)-4-methylphenyl]-5-fluoro-N4-[3-(3-pyridinyl)methyleneoxyphenyl]-2,4-pyrimidinediamine]
[1]; [4]
  IC50: 0.486 µM
[2]
  IC50: 6.62 µM

## CN1C(=O)C(C)(C)Oc2cc(Nc3nc(Nc4cccc(S(N)(=O)=O)c4)ncc3F)cnc21 [VII-42, N2-(3-Aminosulfonylphenyl)-N4-[2,2,4-trimethyl-3-oxo-5-pyrid[1,4]oxazin-7-yl]-5-fluoro-2,4-pyrimidinediamine]
[1]; [3]
  IC50: 0.669 µM
[2]
  IC50: 45.5 µM

## Cc1cc(Nc2nc(Nc3ccc(S(N)(=O)=O)cc3)ncc2F)ccc1OC(C)C(N)=O (racemic) [Compound I-119, Racemic N4-[4-(1-Aminocarbonyl)ethoxy-3-methyl]phenyl-N2-(4-aminosulfonyl)phenyl-5-fluoro-2,4-pyrimidinediamine]
[1]; [4]
  IC50: 0.211 µM
[2]
  IC50: 11.9 µM

## Cc1ccc(Nc2ncc(F)c(Nc3cccc(OCc4cccnc4)c3)n2)cc1S(N)(=O)=O [Compound I-183, N2-(3-Aminosulfonyl-4-methylphenyl)-5-fluoro-N4-[3-(3-pyridinyl)methyleneoxyphenyl]-2,4-pyrimidinediamine]
[1]; [4]
  IC50: 0.249 µM
[2]
  IC50: 2.28 µM

## Cc1cnc(Nc2cccc(S(N)(=O)=O)c2)nc1Nc1ccc(OCc2ccccn2)cc1 [Compound I-179, N2-(3-Aminosulfonylphenyl)-5-methyl-N4-[4-(2-pyridinyl)methyleneoxyphenyl]-2,4-pyrimidinediamine]
[1]; [4]
  IC50: 0.0243 µM
[2]
  IC50: 0.117 µM

## Cc1ccc(Nc2ncc(F)c(Nc3cc(C)c(OC(C)C(N)=O)c(C)c3)n2)cc1S(N)(=O)=O (racemic) [Compound I-124, Racemic N4-[4-(1-Aminocarbonyl)ethoxy-3,5-dimethyl]phenyl-N2-(3-aminosulfonyl-4-methyl)phenyl-5-fluoro-2,4-pyrimidinediamine]
[1]; [4]
  IC50: 0.102 µM
[2]
  IC50: 1.33 µM

## CCS(=O)(=O)N1CCc2cc(Nc3nc(Nc4cccc(S(N)(=O)=O)c4)ncc3F)ccc2C1 [VII-14, N2-(3-aminosulfonyl)phenyl-N4-[(N-ethylsulfonyl)-1,2,3,4-tetrahydroisoquinolin-6-yl]-5-fluoro-2,4-pyrimidinediamine]
[1]; [3]
  IC50: 0.103 µM
[2]
  IC50: 0.877 µM

## N2-[3-Aminosulfonyl-4-(4-methylpiperazine-1-yl)phenyl]-N4-(3-cyanomethylene-1H-indol-7-yl)-5-fluoro-2,4-pyrimidinediamine [IX-18]
[1]; [3]
  IC50: 0.168 µM
[2]
  IC50: 6.66 µM

## Cc1cc(COc2cccc(Nc3nc(Nc4ccc(C)c(S(N)(=O)=O)c4)ncc3F)c2)no1 [Compound I-214]
[1]; [4]
  IC50: 0.144 µM
[2]
  IC50: 1.3 µM

## CNS(=O)(=O)c1cc(Nc2ncc(F)c(Nc3ccc(Cn4ccnc4)cc3)n2)ccc1C [III-85, 5-Fluoro-N2-[3-(N-methylaminosulfony)-4-methylphenyl]-N4-[4-(1-imidazolylmethyl)phenyl]-2,4-pyrimidinediamine hydrochloride]
[1]; Ramos B-cell line stimulated with IL-4, CD23 expression by FACS, hydrochloride
  IC50: 0.0727 µM
[2]; hydrochloride
  IC50: 3.62 µM

## Cc1ccc(Nc2ncc(F)c(Nc3ccc4c(c3)CC(C(=O)N(C)C)O4)n2)cc1S(N)(=O)=O (racemic) [VII-26, Racemic N2-(3-Aminosulfonyl-4-methylphenyl)-N4-[2-(N,N-dimethylaminocarbonyl)-2,3-dihydrobenzofuran-5-yl]-5-fluoro-2,4-pyrimidinediamine]
[1]; [3]
  IC50: 0.545 µM
[2]
  IC50: 9.26 µM

## CNS(=O)(=O)c1cc(Nc2ncc(F)c(Nc3ccc(Cn4ccnc4)cc3)n2)ccc1C [III-86, 5-Fluoro-N2-[3-(N-methylaminosulfony)-4-methylphenyl]-N4-[4-(1-imidazolylmethyl)phenyl]-2,4-pyrimidinediamine dihydrochloride]
[1]; Ramos B-cell line stimulated with IL-4, CD23 expression by FACS, dihydrochloride
  IC50: 0.0976 µM
[2]; dihydrochloride
  IC50: 6.45 µM

## Cc1ccc(Nc2ncc(Br)c(Nc3ccc(OCC#N)cc3)n2)cc1S(N)(=O)=O [Compound I-14, N2-(3-Aminosulfonyl-4-methylphenyl)-5-bromo-N4-(4-cyanomethyleneoxyphenyl)-2,4-pyrimidinediamine]
[1]; [4]
  IC50: 0.013 µM
[2]
  IC50: 0.0418 µM

## CCN(CC)CCNS(=O)(=O)c1ccc(Nc2ncc(F)c(Nc3cccc(OCc4cccnc4)c3)n2)cc1 [Compound I-186, N2-[4-(2-N,N-Diethylaminoethyl)aminosulfonylphenyl)-5-fluoro-N4-[3-(3-pyridinyl)methyleneoxyphenyl]-2,4-pyrimidinediamine]
[1]; [4]
  IC50: 0.188 µM
[2]
  IC50: 3.53 µM

## N#CCN1C(=O)CSc2ccc(Nc3nc(Nc4cccc(S(N)(=O)=O)c4)ncc3F)cc21 [VII-36, N2-(3-Aminosulphonylphenyl)-5-fluoro-N4-(3-oxo-4-cyanomethyl-benzo[1,4]thiazin-6-yl)-2,4-pyrimidinediamine]
[1]; [3]
  IC50: 0.0295 µM
[2]
  IC50: 1.09 µM

## Cc1cc(COc2ccc(Nc3nc(Nc4ccc(C)c(S(N)(=O)=O)c4)ncc3F)cc2)[nH]n1 [Compound I-197, N2-(3-Aminosulfonyl-4-methylphenyl)-5-fluoro-N4-[4-(3-methyl-(1H)-pyrazol-5-yl)methyleneoxyphenyl]-2,4-pyrimidinediamine]
[1]; [4]
  IC50: 0.135 µM
[2]
  IC50: 1.28 µM
